The record followed here is patent US9476099B2 (TRUSTEES OF DARTMOUTH COLLEGE, priority 2012, dated 2016).

In the assay the test system is gene promoters in NT2/D1-R1 control and DNMT3B knockdown cells. Nature of the assay: Genome-wide promoter methylation analysis, HumanMethylation27 BeadChip (Table 15). Format: cell-based, human. The settings on record: three days low-dose decitabine, control NT2/D1-R1. Here is the method:
DNA methylation analysis was performed in samples in triplicate using the […] […] assay with the HumanMethylation27 BeadChip ([…]) and the BeadChip was scanned on the BeadArray Reader ([…]), according to the manufacturer's instructions. Raw data was normalized and analyzed with Genome Studio software ([…]). The HumanMethylation27 BeadChip assays 27,578 CpGs covering more than 14,000 genes, mostly from promoter regions. […] Hierarchical clustering was performed as stated above. HumanMethylation27 BeadChip data and gene expression microarray data were submitted to NCBI GEO.

`Nc1ncn([C@H]2C[C@H](O)[C@@H](CO)O2)c(=O)n1` [decitabine, 5-aza-deoxycytidine]: the “genes with altered promoter methylation” value is recorded as 388 genes. The “genes with decreased levels of promoter methylation” value (of 388 genes) is 305 genes.
